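A five-concentration, 48-hour dose response in 96-well plates underlies each endpoint, interpolated linearly between surrounding concentrations. The concentration for 50% growth inhibition is given as GI50.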 Activity calls are given as the source filed them. Cut-off read from the data, not from the text of the source: active = GI50 up to about 1.1 µM and inactive = higher. Where a SMILES comes first, the peptide text is derived from it. [ ]: non-standard residue; d: D form. The star is where a group is joined. Bn2Val = CC(C)[C@@H](C(=O)*)N(Cc1ccccc1)Cc1ccccc1; NH(4-F-benzyl) = Fc1ccc(CN*)cc1; NMeV = CN[C@H](C(=O)O)C(C)C; dNMeA = CN[C@H](C)C(=O)O
Experiments:
Assay in all cases: growth of human tumour cells (NCI), 48 h
HOP-92 = test system: HOP-92
NCI-H460 = test system: NCI-H460
RXF 393 = test system: RXF 393
TK-10 = test system: TK-10
CAKI-1 = test system: CAKI-1
SF-539 = test system: SF-539
SNB-19 = test system: SNB-19
SN12C = test system: SN12C
HT-29 = test system: HT-29
COLO 205 = test system: COLO 205
HCT-15 = test system: HCT-15
SF-295 = test system: SF-295
CCRF-CEM = test system: CCRF-CEM
MDA-N = test system: MDA-N
SNB-75 = test system: SNB-75
HCC 2998 = test system: HCC 2998
UO-31 = test system: UO-31
RPMI-8226 = test system: RPMI-8226
U-251 = test system: U-251
M14 = test system: M14

SMILES | GI50 (HOP-92) | GI50 (NCI-H460) | GI50 (RXF 393) | GI50 (TK-10) | GI50 (CAKI-1) | GI50 (SF-539) | GI50 (SNB-19) | GI50 (SN12C) | GI50 (HT-29) | GI50 (COLO 205) | GI50 (HCT-15) [µM] | GI50 (SF-295) | GI50 (CCRF-CEM) | GI50 (MDA-N) | GI50 (SNB-75) | GI50 (HCC 2998) | GI50 (UO-31) | GI50 (RPMI-8226) | GI50 (U-251) | GI50 (M14)
CC1=NC(=Cc2cc(Br)cc(Br)c2)C(=O)N1n1c(-c2ccccc2)nc2ccccc2c1=O | > 100 µM (inactive) | > 100 µM (inactive) | > 100 µM (inactive) | > 100 µM (inactive) | > 100 µM (inactive) | > 100 µM (inactive) | > 100 µM (inactive) | > 100 µM (inactive) | > 100 µM (inactive) | > 100 µM (inactive) | > 100 | > 100 µM (inactive) | > 100 µM (inactive) | > 100 µM (inactive) | > 100 µM (inactive) | > 100 µM (inactive) | > 100 µM (inactive) | > 100 µM (inactive) | > 100 µM (inactive) | > 100 µM (inactive)
COc1ccc(/C=C2\CCC(C)C3=C2NC(=S)NC3c2ccc(OC)c(OC)c2)cc1OC (stereo not given) | 36.1 µM (inactive) | 41.8 µM (inactive) | > 10 µM (inactive) | 19.7 µM (inactive) | 15.6 µM (inactive) | 27.2 µM (inactive) | 30.4 µM (inactive) | 24.9 µM (inactive) | 26 µM (inactive) | 8.59 µM (inactive) | 9.95 | 12 µM (inactive) | 8.95 µM (inactive) | 3.83 µM (inactive) | > 100 µM (inactive) | 74.1 µM (inactive) | 12.6 µM (inactive) | 5.16 µM (inactive) | 24.6 µM (inactive) | 19.5 µM (inactive)
COc1ccc2[nH]c3c(C)c4ccnc(NCCCN(C)CCCNC(=O)NCCCN(C)CCCNc5nccc6c(C)c7[nH]c8ccc(OC)cc8c7c(C)c56)c4c(C)c3c2c1 | 0.406 µM (active) | 0.348 µM (active) | 0.369 µM (active) | 1.48 µM (inactive) | 0.716 µM (active) | 0.314 µM (active) | 0.264 µM (active) | 0.269 µM (active) | 0.245 µM (active) | 0.324 µM (active) | 1.26 | 0.566 µM (active) | 0.147 µM (active) | 0.748 µM (active) | 0.402 µM (active) | 0.265 µM (active) | 0.881 µM (active) | 0.564 µM (active) | 0.205 µM (active) | 0.753 µM (active)
OC1c2ccccc2CC12Cc1ccccc1C2 (stereo not given) | 64 µM (inactive) | > 100 µM (inactive) | 48.3 µM (inactive) | > 100 µM (inactive) | > 100 µM (inactive) | > 100 µM (inactive) | > 100 µM (inactive) | 78.9 µM (inactive) | 86.7 µM (inactive) | 31.2 µM (inactive) | > 100 | > 100 µM (inactive) | > 100 µM (inactive) | > 100 µM (inactive) | 61.4 µM (inactive) | > 100 µM (inactive) | 94.2 µM (inactive) | 48.2 µM (inactive) | > 100 µM (inactive) | > 100 µM (inactive)
CCn1c2c(n(CC)c1=S)-c1c(n(CC)c(=S)n1CC)SSSS2 | 3.33 µM (inactive) | 53.7 µM (inactive) | 1.36 µM (inactive) | 15.2 µM (inactive) | 17.9 µM (inactive) | 12.2 µM (inactive) | > 84.1 µM (inactive) | 11.2 µM (inactive) | 11.7 µM (inactive) | 5.53 µM (inactive) | 4.49 | 40.7 µM (inactive) | 1.24 µM (inactive) | > 10 µM (inactive) | 1.91 µM (inactive) | 25.4 µM (inactive) | 12.7 µM (inactive) | 2.82 µM (inactive) | 22.2 µM (inactive) | 6.35 µM (inactive)
CC(C)[C@H](NC(=O)[C@H](C(C)C)N(Cc1ccccc1)Cc1ccccc1)C(=O)N(C)[C@H](C(=O)N1CCC[C@H]1C(=O)N(C)[C@H](C)C(=O)NCc1ccc(F)cc1)C(C)C (Bn2Val-V[NMeV]P[dNMeA]-{NH(4-F-benzyl)}) | 2.97 µM (inactive) | 4 µM (inactive) | 2.34 µM (inactive) | 5.48 µM (inactive) | 5.13 µM (inactive) | 2.71 µM (inactive) | 4.88 µM (inactive) | 3.15 µM (inactive) | 1.95 µM (inactive) | 1.74 µM (inactive) | 3.79 | 3.44 µM (inactive) | 3.65 µM (inactive) | 4.29 µM (inactive) | 4.07 µM (inactive) | 3.48 µM (inactive) | 2.19 µM (inactive) | 3.27 µM (inactive) | 3.3 µM (inactive) | 3.05 µM (inactive)

— ChEMBL document CHEMBL1201862, “PubChem BioAssay data set” (2004)
